Results published in patent publication US20240269139A1, “COMPOUNDS FOR TARGETED PROTEIN DEGRADATION OF KINASES” (DANA-FARBER CANCER INSTITUTE, INC., priority 2020, published 2024).
Where two headings read alike, the source gives them in different places.

Experiments:
[1] = target: T1, CRBN-degrader-kinase ternary complexes (Homo sapiens, UniProt Q96SW2); assay: FLAG-CRBN affinity purification TMT LC-MS3 (AP-MS) of degrader-mediated ternary complexes; assay type: cell-based, H. sapiens; conditions: for enriched proteins in the CRBN AP-MS: relative to SB1-G-187 and WH-10417-099
T1 construct: host or cells: HEK293T
Text: An important aspect of protein degraders is the multifaceted nature of the molecule that enables heightened target selectivity due to differences in complementarity of target-ligase interactions, which is not a consideration when assessing selectivity of inhibitors for target engagement (Famaby el al., Nat Chem Biol 15:672-680 (2019)). For compound-induced degradation to be successful, productive ternary complex formation (ligase-degrader-POI) is necessary for proximity-mediated ubiquitin transfer onto the POI. […] Cellular affinity purification was performed, followed by mass spectrometry (AP-MS) of FLAG-tagged CRBN transiently overexpressed in HEK293T cells. FLAG-CRBN expressing cells were co-treated with proteosome inhibitor and 1 μM of each degrader for 5 h, and the degree of kinase target enrichment was compared to kinase degradation hits in matched global proteomics analysis experiments (FIG. 3A, FIG. 3C). The proteins identified as complexed with CRBN were enriched for kinases as well as their known binding partners such as Cyclin B (CDK1) and RASSF1 (STK4), consistent with the binding profiles of the assayed degraders. All kinases identified by AP-MS except CSNK1A1 were also detected in the HEK293T whole proteome degrader profiling experiment, allowing us to interrogate trends across 52 unique kinases (FIG. 4A; FIG. 11B). Limitations of this experiment include the potential loss of transient or weakly bound complexes in the enrichment and subsequent wash steps, the inherent noise associated with AP-MS relative to global proteomics analysis (Dunham et al., Proteomics 12:1576-1590 (2012): Yugandhar et al., Comput Struct Biotechnol J 17:805-811 (2019)) and the short time point of the experiment, which precludes detection of degradation events with slow kinetics. Therefore, the relationship between the formation of abundant, stable ternary complexes and rapid degradation was assessed.
HEK293T cells were seeded into 15 cm plates and cells were transiently transfected with 8 μg of pNTM-FLAG-CRBN construct using lipofectamine 2000. […] Cells were harvested with non-enzymatic CellStripper™ Dissociation reagent (Corning®), followed by three washes with cold PBS and snap freezing. Cell lysis was performed by the addition of IP lysis buffer (50 mM Tris. pH 7.5, 0.5% NP-40, 1 mM EDTA, 10% glycerol and 200 mM NaCl) containing protease inhibitor cocktail (cOmplete™) and relevant co-treatment (above), followed by end-over-end rotation at 4° C. for 3 hours. Lysate was clarified by centrifugation and salt concentration diluted to 100 mM NaCl with the addition of 0 mM NaCl lysis buffer (containing protease inhibitors and 1 μM of relevant compounds to retain temary complexes throughout binding). Lysate was added to 20 μL of pre-washed anti-FLAG M2 magnetic bead slurry (MilliporeSigma) and incubated with end-over-end rotation at 4° C. overnight. Beads were washed six times with 100 mM NaCl lysis buffer containing 1 μM of relevant degraders to retain ternary complexes throughout wash steps.
Proteins were eluted in a two-step elution with the addition of 0.1 M Glycine hydrochloride (MilliporeSigma) and elution buffered to pH 8.5 using 200 mM Tris buffer, pH 8.5. […] Protein pellets were resuspended in 50 μL of EPPs pH 8 and first digested with 2 μg LysC for 12 h at room temperature (RT), followed by 1 μg of trypsin for 6 hours at 37° C.

[2] = test system: protein kinases in MOLT-4 cells; assay: Whole cell quantitative proteomics in MOLT-4 cells; conditions: for GCK binding and degradation: 1 μM, 5 h; for kinase degradation over time: MOLT-4, 1 μM, 1, 2, 4, 8 and 12 h
Method: Whole cell multiplexed quantitative proteomics was employed to measure changes in abundance of the proteome in response to treatment with each of the kinase degrader molecules relative to DMSO (Table 1, Appendix I).
Cells were treated with DMSO (biological triplicate) or degrader at indicated dose and time and cells were harvested by centrifugation. […] Precipitated protein was resuspended in 4 M Urea, 50 mM HEPES pH 7.4, followed by dilution to 1 M urea with the addition of 200 mM EPPS, pH 8. Proteins were first digested with LysC (1:50: enzyme:protein) for 12 hours at room temperature. The LysC digestion was diluted to 0.5 M Urea with 200 mM EPPS pH 8 followed by digestion with trypsin (1:50; enzyme:protein) for 6 hours at 37° C. Tandem mass tag (TMT) reagents (Thermo Fisher Scientific) were dissolved in anhydrous acetonitrile (ACN) according to manufacturer's instructions. […] The 10, 11, or 16-plex labeling reactions were performed for 1.5 hours at room temperature and the reaction quenched by the addition of hydroxylamine to a final concentration of 0.3% for 15 minutes at room temperature. The sample channels were combined at a 1:1 ratio, desalted using C18 solid phase extraction cartridges (Waters®) and analyzed by LC-MS for channel ratio comparison. Samples were then combined using the adjusted volumes determined in the channel ratio analysis and dried down in a speed vacuum. The combined sample was then resuspended in 1% formic acid, and acidified (pH 2-3) before being subjected to desalting with C18 SPE (Sep-Pak®, Waters®). Samples were then offline fractionated into 96 fractions by high pH reverse-phase HPLC (Agilent® LC1260) through an aeris peptide xb-c18 column (Phenomenex®) with mobile phase A containing 5% acetonitrile and 10 mM NH4HCO3 in LC-MS grade H2O, and mobile phase B containing 90% acetonitrile and 10 mM NH4HCO3 in LC-MS grade H2O (both pH 8.0). The 96 resulting fractions were then pooled in a non-continuous manner into 24 fractions and desalted using C18 solid phase extraction plates (SOLA®, Thermo Fisher Scientific) followed by subsequent mass spectrometry analysis.
Data were collected using an Orbitrap Fusion™ Lumos™ mass spectrometer (Thermo Fisher Scientific, San Jose, CA, USA) coupled with a Proxeon EASY-nLC™ 1200 LC pump (Thermo Fisher Scientific) or an Orbitrap Eclipse™ Tribrid™ mass spectrometer (Thermo Fisher Scientific, San Jose, CA, USA) coupled with an UltiMate™ 3000 RSLCnano System. Peptides were separated on an EasySpray™ ES803a/ES803a.rev2 75 μm inner diameter microcapillary column (ThermoFisher Scientific).
Data dependent MS2 spectra were acquired in the ion trap with a normalized collision energy (NCE) set at 35%, AGC target set to 1.8×10^4 and a maximum injection time of 120 ms. MS3 scans were acquired in the Orbitrap with HCD collision energy set to 55%. AGC target set to 2×10^5, maximum injection time of 150 ms, resolution at 50,000 and with a maximum synchronous precursor selection (SPS) precursors set to 10.
Proteome Discoverer™ 2.1, 2.2 or 2.4 (Thermo Fisher Scientific) was used for .RAW file processing and controlling peptide and protein level false discovery rates, assembling proteins from peptides, and protein quantification from peptides.

[3] = target: protein kinases (human kinome) (Homo sapiens, UniProt O94804); assay type: cell-based; conditions: STK10 (O94804)
[4] = HEK293T, 1 μM, 5 h, proteasome inhibitor
[5] = experiment wp103, direction down

T1 sequence (Q96SW2 whole entry): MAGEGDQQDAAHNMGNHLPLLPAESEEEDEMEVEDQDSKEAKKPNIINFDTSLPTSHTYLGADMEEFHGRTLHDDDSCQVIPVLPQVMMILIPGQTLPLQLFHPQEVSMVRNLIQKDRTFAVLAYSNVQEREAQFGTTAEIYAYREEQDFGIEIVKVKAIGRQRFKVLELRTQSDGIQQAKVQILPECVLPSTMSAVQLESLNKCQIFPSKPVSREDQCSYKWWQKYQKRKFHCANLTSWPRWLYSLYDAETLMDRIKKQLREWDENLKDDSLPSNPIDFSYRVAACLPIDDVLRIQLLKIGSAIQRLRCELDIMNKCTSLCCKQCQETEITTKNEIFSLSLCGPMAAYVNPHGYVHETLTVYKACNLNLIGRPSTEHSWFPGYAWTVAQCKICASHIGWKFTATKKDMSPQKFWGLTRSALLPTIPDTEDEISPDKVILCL
T1 sequence (Q16531 whole entry partner): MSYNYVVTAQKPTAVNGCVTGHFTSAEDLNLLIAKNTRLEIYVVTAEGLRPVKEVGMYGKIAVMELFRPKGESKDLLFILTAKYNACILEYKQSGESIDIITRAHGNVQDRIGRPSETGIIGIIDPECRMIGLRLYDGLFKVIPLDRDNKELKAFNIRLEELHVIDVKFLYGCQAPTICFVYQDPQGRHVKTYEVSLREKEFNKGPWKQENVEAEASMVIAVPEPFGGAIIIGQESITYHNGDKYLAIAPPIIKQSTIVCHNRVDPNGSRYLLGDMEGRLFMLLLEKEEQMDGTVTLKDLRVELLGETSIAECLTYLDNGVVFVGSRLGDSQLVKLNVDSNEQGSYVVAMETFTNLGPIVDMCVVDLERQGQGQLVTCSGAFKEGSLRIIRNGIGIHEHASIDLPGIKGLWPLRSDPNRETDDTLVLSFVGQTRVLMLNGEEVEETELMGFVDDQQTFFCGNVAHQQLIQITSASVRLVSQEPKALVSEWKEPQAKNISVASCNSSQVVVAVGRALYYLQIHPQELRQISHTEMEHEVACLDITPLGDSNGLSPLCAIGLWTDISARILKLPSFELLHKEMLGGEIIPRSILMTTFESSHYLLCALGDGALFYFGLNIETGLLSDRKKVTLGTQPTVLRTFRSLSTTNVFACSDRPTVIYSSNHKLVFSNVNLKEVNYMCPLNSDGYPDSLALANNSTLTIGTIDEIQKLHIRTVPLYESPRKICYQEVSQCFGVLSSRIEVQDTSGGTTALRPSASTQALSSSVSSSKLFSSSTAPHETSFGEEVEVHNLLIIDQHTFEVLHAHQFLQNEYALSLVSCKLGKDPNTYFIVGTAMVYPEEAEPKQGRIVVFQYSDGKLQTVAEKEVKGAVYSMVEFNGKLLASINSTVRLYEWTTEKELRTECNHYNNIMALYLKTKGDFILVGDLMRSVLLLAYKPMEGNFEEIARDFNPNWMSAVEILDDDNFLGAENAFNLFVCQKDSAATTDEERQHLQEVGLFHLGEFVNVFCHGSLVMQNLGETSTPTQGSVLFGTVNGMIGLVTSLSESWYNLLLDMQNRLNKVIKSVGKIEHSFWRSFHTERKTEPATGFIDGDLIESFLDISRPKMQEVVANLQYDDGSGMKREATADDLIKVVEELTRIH
Sequence of protein kinases (human kinome) (O94804 whole entry): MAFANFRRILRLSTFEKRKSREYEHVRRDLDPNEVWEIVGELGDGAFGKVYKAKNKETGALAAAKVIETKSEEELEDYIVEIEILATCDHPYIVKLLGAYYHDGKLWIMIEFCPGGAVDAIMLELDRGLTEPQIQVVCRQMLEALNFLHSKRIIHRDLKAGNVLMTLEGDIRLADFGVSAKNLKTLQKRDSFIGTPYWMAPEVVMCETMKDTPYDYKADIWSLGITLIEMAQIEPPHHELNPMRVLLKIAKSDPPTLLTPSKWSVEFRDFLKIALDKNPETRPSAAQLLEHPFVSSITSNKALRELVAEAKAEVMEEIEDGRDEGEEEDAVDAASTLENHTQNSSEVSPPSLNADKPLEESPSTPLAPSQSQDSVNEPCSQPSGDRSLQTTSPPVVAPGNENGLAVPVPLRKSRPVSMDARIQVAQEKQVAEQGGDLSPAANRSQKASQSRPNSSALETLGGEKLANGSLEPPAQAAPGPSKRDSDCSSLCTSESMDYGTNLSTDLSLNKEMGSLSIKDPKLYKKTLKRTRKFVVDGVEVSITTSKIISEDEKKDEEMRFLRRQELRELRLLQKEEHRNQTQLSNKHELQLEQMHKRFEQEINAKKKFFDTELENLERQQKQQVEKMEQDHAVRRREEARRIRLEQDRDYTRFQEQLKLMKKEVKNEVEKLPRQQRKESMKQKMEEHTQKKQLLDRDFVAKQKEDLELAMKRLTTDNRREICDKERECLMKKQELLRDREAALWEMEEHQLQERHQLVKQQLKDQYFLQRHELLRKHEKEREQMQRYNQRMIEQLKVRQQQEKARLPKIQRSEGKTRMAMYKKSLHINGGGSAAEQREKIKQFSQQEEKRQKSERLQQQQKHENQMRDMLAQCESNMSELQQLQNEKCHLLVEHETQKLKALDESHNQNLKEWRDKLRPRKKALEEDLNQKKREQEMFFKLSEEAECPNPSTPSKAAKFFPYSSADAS

Structure (SMILES): Cc1ccc(NC(=O)c2cccc(C(F)(F)F)c2)cc1N1Cc2cnc(Nc3ccc(N4CCN(Cc5cn(CCCCCOc6cccc7c6C(=O)N(C6CCC(=O)NC6=O)C7=O)nn5)CC4)nc3)nc2N(C)C1=O (stereo not drawn) [DB0646, N-(3-(7-((6-(4-((1-(5-((2-(2,6-Dioxopiperidin-3-yl)-1,3-dioxoisoindolin-4-yl)oxy)pentyl)-1H-1,2,3-triazol-4-yl)methyl)piperazin-1-v)pyridin-3-yl)amino)-1-methyl-2-oxo-1,4-dihydropyrimido[4,5-d]pyrimidin-3(2H)-yl)-4-methylphenyl)-3-(trifluoromethyl)benzamide]
- YES1: ternary complex formation with CRBN versus degradation [1, 4]: complex formation and degradation are sometimes detected together
- enriched proteins in the CRBN AP-MS [1]: fewer enriched proteins
- GCK binding and degradation [2]: bound and degraded
- kinase degradation over time [2]: most kinases showed increased degradation over time

Structure (SMILES): CC(C)S(=O)(=O)c1ccccc1Nc1nc(Nc2ccc(N3CCN(CCOCCOCCNC(=O)CNc4cccc5c4C(=O)N(C4CCC(=O)NC4=O)C5=O)CC3)cc2)ncc1Cl (stereo not drawn) [TL12.186]
- logFC ([3]; experiment wp016): −0.3819
- logFC ([3]; experiment wp016, direction down): −0.3819

Structure (SMILES): CC(C)S(=O)(=O)c1ccccc1Nc1nc(Nc2ccc(N3CCN(CCOCCOCCC(=O)NCCNc4cccc5c4CN(C4CCC(=O)NC4=O)C5=O)CC3)cc2)ncc1Cl (stereo not drawn) [TL13.97]
- logFC ([3]; experiment wp137): −0.3477
- logFC ([3]; experiment wp137, direction down): −0.3477

Structure (SMILES): Cc1ccc(C(=O)Nc2ccc(CN3CCN(CCCOCCOCCOCCNC(=O)COc4cccc5c4C(=O)N(C4CCC(=O)NC4=O)C5=O)CC3)c(C(F)(F)F)c2)cc1C#Cc1cnc2cccnn12 (stereo not drawn) [SB1.G.187]
- logFC ([3]; experiment wp103): −0.3374
- logFC [3, 5]: −0.3374

Structure (SMILES): CC(C)S(=O)(=O)c1ccccc1Nc1nc(Nc2ccc(N3CCN(CCOCCNC(=O)CNc4cccc5c4C(=O)N(C4CCC(=O)NC4=O)C5=O)CC3)cc2)ncc1Cl (stereo not drawn) [SK-3-91]
- YES1: ternary complex formation with CRBN versus degradation [1, 4]: complex formation does not predict degradation
- enriched proteins in the CRBN AP-MS [1]: fewer enriched proteins
- GCK binding and degradation [2]: not degraded
- kinase degradation over time [2]: most kinases showed increased degradation over time

Structure (SMILES): Nc1ncc(-c2ccc(S(=O)(=O)N(CCCNC(=O)CCOCCOCCOCCOCCOCCNc3cccc4c3C(=O)N(C3CCC(=O)NC3=O)C4=O)C3CC3)cc2)cc1-c1ccc2c(c1)CCNC2=O (stereo not drawn) [WH.10417.099]
- logFC ([3]; experiment wp056): −0.4923
- logFC ([3]; experiment wp056, direction down): −0.4923
- logFC ([3]; experiment wp103): −0.4751
- logFC [3, 5]: −0.4751
- logFC ([3]; experiment wp107): −0.5661
- logFC ([3]; experiment wp107, direction down): −0.5661

Structure (SMILES): Cc1ccc(C(=O)Nc2ccc(CN3CCN(CCCOCCOCCOCCNC(=O)COc4cccc5c4C(=O)N(C4CCC(=O)NC4=O)C5=O)CC3)c(C(F)(F)F)c2)cc1C#Cc1cnc2cccnn12 (stereo not drawn) [SB1-G-187, N-(4-((4-(1-((2-(2,6-dioxopiperidin-3-yl)-1,3-dioxoisoindolin-4-yl)oxy)-2-oxo-6,9,12-trioxa-3-azapentadecan-15-yl)piperazin-1-yl)methyl)-3 (trifluoromethyl)phenyl)-3-(imidazo[1,2-b]pyridazin-3-ylethynyl)-4-methylbenzamide]
- IRAK1: ternary complex formation with CRBN versus degradation [1, 4]: complex formation and degradation are sometimes detected together
- LYN: ternary complex formation with CRBN versus degradation [1, 4]: complex formation and degradation are sometimes detected together
- YES1: ternary complex formation with CRBN versus degradation [1, 4]: complex formation and degradation are sometimes detected together
- GCK binding and degradation [2]: bound and degraded
